Here are results for two compounds from patent publication US20140243419A1, “MUCOSALLY-APPLIED AGENT FOR PREVENTION, AMELIORATION OR TREATMENT OF RETINAL DISEASE” (ROHTO PHARMACEUTICAL CO., LTD., priority 2013, published 2014).

The test system of series [1] is NMDA-induced glaucoma rat model. As to the kind of experiment: Protective effect against NMDA-induced nerve damage, instillation into the nose and administration to the oral cavity. The class given is in vivo, Sprague-Dawley (SD) rats. To be noted: vs no GGA. On the procedure: (§1) In recent years the glutamate analogue NMDA (N-methyl-D-aspartate) has been widely reported to be one of causative agents of neurodegenerative diseases including Alzheimer's disease. In the ophthalmic field, NMDA is considered to be involved in optic nerve damage in glaucoma (Brain Research Bulletin, 81 (2010) 349-358). Accordingly, in this experiment rat models with glaucoma induced by NMDA were used to evaluate the neuroprotective effect of GGA.
To Sprague-Dawley (SD) rats (n=6), 20 μL of 100% (w/v) GGA (all-trans form) was intranasally administered once a day for five days and after each administration the rats were maintained under anesthesia for 30 minutes. On the third day after the start of the administration of GGA, 5 μL of 4 mM NMDA was intravitreously administered to induce nerve damage. […]
Three days after the administration of NMDA, the eyeballs were harvested, fixed in Karnovsky's fixative solution for 24 hours, embedded in paraffin, thin sectioned and stained with hematoxylin-eosin (HE) to prepare histopathological sections. The histological sections were observed under an optical microscope and the thickness (μm) of the inner plexiform layer (IPL) of the retina was measured. Based on the thickness of the inner plexiform layer (IPL) of the retina, the neuroprotective effect of the tested eye drops was evaluated.

Series [2] has as its system human corneal epithelial cells (HCET). Kind of series: Cell permeability (Transwell), HCET. The class given is in vitro ADME. To be noted: HCET on Transwell; 0.1% GGA (all-trans:5Z-mono-cis 6:4); 30 minutes or 4 hours; compared with MDCK-I; FIG. 3. The method, then: (§2) The following test was performed using three types of cells, human corneal epithelial cells (HCET), human nasal septum squamous carcinoma cells (RPMI-2650), and canine renal tubular epithelial cells (MDCK-I), which are often used as an intestinal permeability assay model. The medium used for culture of each type of cells is shown below.
HCET: a liquid medium containing an equal ratio of Dulbecco's modified Eagle's basal medium/Ham's F12 (DMEM/F-12, Invitrogen) supplemented with 0.5% DMSO (Wako Pure Chemical Industries, Ltd.), 10 ng/mL epidermal growth factor (R&D), 5 μg/mL insulin (Invitrogen) and 5% (v/v) fetal calf serum (Daiichi Pure Chemicals)
GGA having a weight ratio of the all-trans form to the 5Z-mono-cis form of 6:4 (Wako Pure Chemical Industries, Ltd.) was used as a test substance. Amounts of 100 mg of GGA and 0.25 mg of α-tocopherol (Wako Pure Chemical Industries, Ltd.) as an antioxidant were weighed and dissolved in 789 mg of 100% ethanol. […]
Each type of cells was seeded onto a Transwell 24-well microplate (CORNING) at 5.0×10, cells per well and cultured under 5% CO2 at 37° C. […] After the culture period, the culture supernatant in the Transwells was recovered and the residual GGA in the supernatant was measured. […]
(§3) The concentration of GGA was measured as follows. […]

The test system of series [3] is human nasal septum squamous carcinoma cells (RPMI-2650). As to the kind of experiment: Cell permeability (Transwell), RPMI-2650. The class given is in vitro ADME. To be noted: RPMI-2650 on Transwell; 0.1% GGA (all-trans:5Z-mono-cis 6:4); 30 minutes or 4 hours; compared with MDCK-I; FIG. 3. On the procedure:
as §2
RPMI-2650: a minimum essential medium (MEM, Invitrogen) supplemented with 10% (v/v) fetal calf serum (Daiichi Pure Chemicals)
GGA having a weight ratio of the all-trans form to the 5Z-mono-cis form of 6:4 (Wako Pure Chemical Industries, Ltd.) was used as a test substance. Amounts of 100 mg of GGA and 0.25 mg of α-tocopherol (Wako Pure Chemical Industries, Ltd.) as an antioxidant were weighed and dissolved in 789 mg of 100% ethanol. The GGA dissolved in ethanol was diluted and dissolved in serum-free medium appropriate for each type of cells to a final concentration of 0.1 w/v %.
Each type of cells was seeded onto a Transwell 24-well microplate (CORNING) at 5.0×10, cells per well and cultured under 5% CO2 at 37° C. To each of the Transwells' lower chambers, 600 μL of the same medium as used for cell culture was added. […] After the culture period, the culture supernatant in the Transwells was recovered and the residual GGA in the supernatant was measured. […]
as §3

Series [4] in a line: Decomposition of teprenone eye drop by direct sunlight in containers. The class given is physicochemical. To be noted: direct sunlight 24 hours; Container C (polyethylene terephthalate); vs aluminum foil covered control. The method, then:
An eye drop containing teprenone was prepared. Specifically, the eye drop was prepared as follows. To surfactants (polysorbate 80 and POE castor oil) warmed to 65° C., teprenone was added and dissolved under stirring in hot water bath at 65° C. for 2 minutes. Water at 65° C. was added, a buffer solution was added, and the mixture was mixed under stirring to give a homogeneous solution. The pH and osmotic pressure were adjusted with hydrochloric acid or sodium hydroxide. The resulting solution was filtered through a membrane filter with a pore size of 0.2 μm (bottle top filter, Thermo Fisher Scientific) to give a clear sterile eye drop.
The eye drop was separately poured, using a glass volumetric pipette, into 10- to 15-mL plastic or glass containers each in an amount of 5 mL (5 g) and the containers were sealed. These eye drops were placed in the upright position on a test-tube stand and left to stand under direct sunlight for 24 hours (test samples). […]
The amount of teprenone contained in the test or control eye drops was measured by HPLC and the amount of decomposition (mg/100 mL) by light irradiation was calculated. The amount of decomposition by light irradiation was calculated as follows: […]

For series [5], the system named is retinal detachment-induced animal. To be noted: intraperitoneal administration; cited from earlier work.
The test system of a further series is glaucoma rat model. To be noted: intraperitoneal administration; cited from earlier work.
Series [6] deals with mouse with photoreceptor cell damage caused by light irradiation. To be noted: oral administration; cited from earlier work.
For series [7], the system named is mouse with retinal injury induced by ischemia. To be noted: oral administration; cited from earlier work.
Series [8] concerns multiple sclerosis mouse model. To be noted: oral administration; cited from earlier work.
The subject of series [9] is NMDA-induced glaucoma rat model. As to the kind of experiment: Protective effect against NMDA-induced nerve damage, administration by instillation to the eye. To be noted: Test 2, FIG. 1: 1% memantine solution in PBS instilled twice a day for five days; 5 μL of 4 mM NMDA intravitreously; vs base (PBS). The class given is in vivo, Sprague-Dawley (SD) rats.
Text: as §1
To Sprague-Dawley (SD) rats (n=8), an eye drop containing 1% (w/v) GGA (all-trans form) or a control eye drop not containing GGA was pre-administered by instillation to the eye twice a day for five days. On the fifth day after the start of the instillation, 5 μL of 4 mM NMDA was intravitreously administered to induce nerve damage (Test 1). […]
Three days after the administration of NMDA, the eyeballs were harvested, fixed in half Karnovsky's fixative solution for 24 hours, embedded in paraffin, thin sectioned and stained with hematoxylin-eosin (HE) to prepare histopathological sections. The histological sections were observed under an optical microscope and the thickness (μm) of the inner plexiform layer (IPL) of the retina was measured. Based on the thickness of the inner plexiform layer (IPL) of the retina, the neuroprotective effect of the tested eye drops was evaluated.

As to geranylgeranylacetone [GGA], the “neuroprotective effect based on thickness of the inner plexiform layer (IPL) of the retina” value (shortened to “neuroprotective effect based”) in series [1] (FIG. 2: 20 μL of 100% (w/v) GGA (all-trans form) intranasally once a day for five days) is given as “apparent neuroprotective effect”. The “neuroprotective effect based” value in series [1] (FIG. 2: 100 μL of 100% (w/v) GGA (all-trans form) to the oral cavity once a day for five days) is reported as “apparent neuroprotective effect”. The “permeability of GGA through cells” value in series [2] is recorded as “higher than that through MDCK-I”. In addition, in series [3], the “permeability of GGA through cells” value is given as “higher than that through MDCK-I”. In series [4], the Amount of decomposition result is recorded as “significantly inhibited the decomposition of GGA”. In series [5], the “apoptosis of photoreceptor cells” value is “reduced the apoptosis of photoreceptor cells significantly” and the “expression of heat shock protein 70” value is given as “induced the expression of heat shock protein 70”. In the series on glaucoma rat model, the “expression of heat shock protein 72” value is “induced the expression of heat shock protein 72”, the optic nerve damage result is recorded as “ameliorated optic nerve damage” and the “retinal ganglion cell death” value is listed as “reduced retinal ganglion cell death”. The “thioredoxin and heat shock protein 72 in the retinal pigment epithelium” value in [6] was “induced thioredoxin and heat shock protein 72 in the retinal pigment epithelium”. In [7], the “number of surviving retinal neurons” value was “significantly increased the number of surviving retinal neurons”. Further, in series [8], the “cell loss in the ganglion” value is recorded as “prevented cell loss in the ganglion”, the “number of degenerating axons in the optic nerve” value is “reduced the number of degenerating axons in the optic nerve” and the visual function entry is “improved the visual function”.
Take `CC12CC3CC(C)(C1)CC(N)(C3)C2` [memantine]: the “neuroprotective effect based” value in [9] is listed as “no neuroprotective effect”.
